Experimental data as given in patent publication US20250179047A1, “5-[7-(3,4-DIHYDRO-1H-ISOQUINOLINE-2-CARBONYL)-1,2,3,4 TETRAHYDROISOQUINOLIN-6-YL]-1H-PYRROLE-3-CARBOXAMIDE DERIVATIVES, PHARMACEUTICAL COMPOSITIONS CONTAINING THEM AND THEIR USES AS PRO-APOPTOTIC AGENTS” (LES LABORATOIRES SERVIER, priority 2022, published 2025).
pKi: −log10 of the molar value.

Experiments:
BCL2 WT = BCL2 WT (Homo sapiens (Human), UniProt P10415); test: TR-FRET competitive binding assay, BCL2 WT; conditions: Ki determined from IC50, read-out: TR_FRET EKI_Bcl2 WT
Outline: (§1)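 Competitive TR-FRET displacement of fluorescein-PUMA peptide (2 or 20 nM) from 0.5 nM terbium-labelled N-terminal Halo-fusion BCL2 (1-207, wild type or mutant) or BCLXL (2-196), expressed in E. coli. Buffer 50 mM Hepes pH 7.5, 150 mM NaCl, 5% DMSO; 2 h at 23°C. 520/495 nm ratio fitted over 11 points for IC50, converted to Ki.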

BCL2 G101V [1] = target: BCL2 G101V (Homo sapiens, UniProt P10415, G101V); test: TR-FRET competitive binding assay, BCL2 G101V; conditions: BCL2 G101V; Ki determined from IC50; read-out: TR_FRET EKI_Bcl2 G101V
Outline: as §1

BCL2 G101V [2] = test: TR-FRET competitive binding assay, BCL2 G101V; design: species or system human; conditions: ratio Ki BCL2 G101V / Ki BCL2 WT
Outline: as §1

BCL2 D103Y = BCL2 D103Y (Homo sapiens, UniProt P10415, D103Y); test: TR-FRET competitive binding assay, BCL2 D103Y; conditions: Ki determined from IC50, read-out: TR_FRET EKI_Bcl2 D103Y
Outline: as §1

BCL2 F104I = BCL2 F104I (Homo sapiens, UniProt P10415, F104I); test: TR-FRET competitive binding assay, BCL2 F104I; conditions: Ki determined from IC50, read-out: TR_FRET EKI_Bcl2 F104I
Outline: as §1

BCL2 D111A = BCL2 D111A (Homo sapiens, UniProt P10415, D111A); test: TR-FRET competitive binding assay, BCL2 D111A; conditions: Ki determined from IC50, read-out: TR_FRET EKI_Bcl2 D111A
Outline: as §1

BCLXL WT = BCLXL WT (Homo sapiens (Human), UniProt Q07817); test: TR-FRET competitive binding assay, BCLXL WT; conditions: for pKi: BCLXL WT, Ki determined from IC50, read-out: TR_FRET EKI BclxL; for TR_FRET EKI BCLxL/WT selectivty ratio: ratio Ki BCLxL / Ki BCL2 WT
Sequence of BCLXL WT (Q07817 other isoform, or with tags, fused parts or gaps): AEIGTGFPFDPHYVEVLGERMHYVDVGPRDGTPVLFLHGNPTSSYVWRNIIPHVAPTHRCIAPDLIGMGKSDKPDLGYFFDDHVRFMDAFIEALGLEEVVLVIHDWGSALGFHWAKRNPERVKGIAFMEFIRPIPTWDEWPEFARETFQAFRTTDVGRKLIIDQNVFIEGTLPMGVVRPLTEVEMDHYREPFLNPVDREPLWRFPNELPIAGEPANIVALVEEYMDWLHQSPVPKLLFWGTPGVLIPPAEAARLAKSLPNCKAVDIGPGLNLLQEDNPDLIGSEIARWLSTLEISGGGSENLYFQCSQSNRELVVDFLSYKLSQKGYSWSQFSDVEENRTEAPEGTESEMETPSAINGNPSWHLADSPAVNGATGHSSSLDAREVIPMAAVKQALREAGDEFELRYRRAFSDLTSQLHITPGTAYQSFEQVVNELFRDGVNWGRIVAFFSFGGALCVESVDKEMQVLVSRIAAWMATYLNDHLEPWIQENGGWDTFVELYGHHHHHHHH
Outline: as §1

KMS-12-PE Bcl-2 WT = test: In vitro cytotoxicity CellTiter-Glo 48 h, KMS-12-PE Bcl-2 WT; assay type: cell-based; conditions: Homo sapiens, KMS-12-PE, C50 = concentration needed to reach 50% of the cellular viability
Outline: (§2)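 Transduce KMS-12-PE with Bcl-2 WT or G101V lentivirus, then FACS-sort RFP-positive cells. Add compounds in an 11-point dilution series and incubate 48 h at 37 °C. Measure ATP-based luminescence with CellTiter-Glo and derive C50 (50% viability).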

KMS-12-PE Bcl-2 G101V = test: In vitro cytotoxicity CellTiter-Glo 48 h, KMS-12-PE Bcl-2 G101V; assay type: cell-based; conditions: for Ratio (G101V/WT): C50 KMS-12-PE Bcl-2 G101V over C50 KMS-12-PE Bcl-2 WT; for IC50: Homo sapiens, KMS-12-PE, 48 h, CellTiter-Glo, C50 = concentration needed to reach 50% of the cellular viability
Outline: as §2

platelets = test: Platelet depletion in SCID mice; assay type: in vivo; conditions: 25 mg/kg IV bolus, vs control group; for Platelet loss (%) 6 h: 6 h after dosing; for Platelet loss (%) 24 h: 24 h after dosing
Protocol: (§3) Pharmacokinetic (PK) and platelet toxicity were investigated in SCID mice. Compounds were administered at 25 mg/kg by IV bolus, and formulated in PEG/Ethanol/NaCl 0.9% (40/10/50 v/v/v).
(§4) Blood samples (3 animals/time point and 3 time points/animal) were collected over 24 h after dosing: 0.05 h, 0.5 h, 1 h, 3 h, 6 h and 24 h for PK and 6 h and 24 h for platelets.
(§5) PK samples were analyzed by liquid chromatography using tandem mass spectrometry detection (LC-MS/MS) and platelet count (109/L) was measured using an hematology analyzer. Percentage of platelet loss was calculated at both time points (T+6 h and 24 h) as compared to a control group of 6 animals. PK parameters (Cinf and AUC24, which correspond to the concentration at the end of bolus administration and the area under curve over 24 h, respectively) were also determined using a non-compartmental analysis.

[3] = Pharmacokinetics in SCID mice; assay type: in vivo; conditions: 25 mg/kg IV bolus; for PK parameters Cinf: concentration at the end of bolus administration; for AUC: mouse, blood, area under curve over 24 h, read-out: PK parameters AUC24
Protocol: as §3, §4, §5

| SMILES | pKi (BCL2 WT) | pKi (BCL2 G101V [1]) | TR_FRET EKI G101V/WT selectivty ratio (BCL2 G101V [2]) | pKi (BCL2 D103Y) | pKi (BCL2 F104I) | pKi (BCL2 D111A) | pKi (BCLXL WT) | TR_FRET EKI BCLxL/WT selectivty ratio (BCLXL WT) | IC50 (KMS-12-PE Bcl-2 WT) [µM] | Ratio (G101V/WT) (KMS-12-PE Bcl-2 G101V) | IC50 (KMS-12-PE Bcl-2 G101V) [µM] | Platelet loss (%) 6 h (platelets) [%] | Platelet loss (%) 24 h (platelets) [%] | PK parameters Cinf [3] [µM] | AUC [3] [µM·h] |
| --- | --- | --- | --- | --- | --- | --- | --- | --- | --- | --- | --- | --- | --- | --- | --- |
| COc1ccc(CC(=O)N2CCc3cc(-c4cc(C(=O)N(c5ccc(O)cc5)c5cc(C#N)n(C)c5C)c(C)n4C)c(C(=O)N4Cc5ccccc5C[C@H]4CN4CCCCC4)cc3C2)c(F)c1 [Example 33, N-(5-cyano-1,2-dimethylpyrrol-3-yl)-5-{2-[2-(2-fluoro-4-methoxyphenyl)acetyl]-7-{[(3S)-3-(piperidin-1-ylmethyl)-3,4-dihydro-1H-isoquinolin-2-yl]carbonyl}-3,4-dihydro-1H-isoquinolin-6-yl}-N-(4-hydroxyphenyl)-1,2-dimethylpyrrole-3-carboxamide] | 9.82 | 9.30 | 3.3 | 9.66 | 9.30 | 10.00 | 8.43 | 24.7 | 0.0054 | 9.09 | 0.0491 | 33.5 | 22.5 | 8.4 | 12.6 |
| Cc1c(N(C(=O)c2cc(-c3cc4c(cc3C(=O)N3Cc5ccccc5C[C@H]3CN3CCCCC3)CN(C(=O)Cc3ccc(OCCC5CCOCC5)cc3F)CC4)n(C)c2C)c2ccc(O)cc2)cc(C#N)n1C [Example 34, N-(5-cyano-1,2-dimethylpyrrol-3-yl)-5-[2-(2-{2-fluoro-4-[2-(oxan-4-yl)ethoxy]phenyl}acetyl)-7-{[(3S)-3-(piperidin-1-ylmethyl)-3,4-dihydro-1H-isoquinolin-2-yl]carbonyl}-3,4-dihydro-1H-isoquinolin-6-yl]-N-(4-hydroxyphenyl)-1,2-dimethylpyrrole-3-carboxamide] | 9.47 | 9.05 | 2.6 | 9.28 | 9.57 | 9.70 | 8.28 | 15.6 | 0.0052 | 5.29 | 0.0275 | 33.7 | 18.2 | 8.2 | 9.7 |
| Cc1c(N(C(=O)c2cc(-c3cc4c(cc3C(=O)N3Cc5ccccc5C[C@H]3C)CN(C(=O)Cc3ccc(OCCN5C[C@@H](C)O[C@@H](C)C5)cc3)CC4)n(C)c2C)c2ccc(O)cc2)cc(C#N)n1C [Example 39, N-(5-cyano-1,2-dimethyl-1H-pyrrol-3-yl)-5-{2-[2-(4-{2-[cis-2,6-dimethylmorpholin-4-yl]ethoxy}phenyl)acetyl]-7-[(3R)-3-methyl-1,2,3,4-tetrahydroisoquinoline-2-carbonyl]-1,2,3,4-tetrahydroisoquinolin-6-yl}-N-(4-hydroxyphenyl)-1,2-dimethyl-1H-pyrrole-3-carboxamide] | 9.70 | 9.15 | 3.5 | 9.15 | 9.34 | 9.74 | 8.64 | 11.5 | 0.0056 | 4.07 | 0.023 | 26.9 | 20.2 | 26.5 | 26.7 |
| Cc1c(N(C(=O)c2cc(-c3cc4c(cc3C(=O)N3Cc5ccccc5C[C@H]3CN3CCOCC3)CN(C(=O)Cc3ccc(OCCC5CCOCC5)cc3F)CC4)n(C)c2C)c2ccc(O)cc2)cc(C#N)n1C [Example 54, N-(5-cyano-1,2-dimethyl-pyrrol-3-yl)-5-[2-[2-[2-fluoro-4-(2-tetrahydropyran-4-ylethoxy)phenyl]acetyl]-7-[(3S)-3-(morpholinomethyl)-3,4-dihydro-1H-isoquinoline-2-carbonyl]-3,4-dihydro-1H-isoquinolin-6-yl]-N-(4-hydroxyphenyl)-1,2-dimethyl-pyrrole-3-carboxamide] | 10.00 | 9.52 | 2.7 | 9.96 | 9.28 | 9.40 | 8.64 | 24.0 | 0.0057 | 4.23 | 0.024 | 28.6 | 22.5 | 11.4 | 9.2 |
| Cc1c(N(C(=O)c2cc(-c3cc4c(cc3C(=O)N3Cc5ccccc5C[C@H]3C)CN(C(=O)Cc3ccc(OCCN5CCO[C@H](C)C5)cc3)CC4)n(C)c2C)c2ccc(O)cc2)cc(C#N)n1C [Example 56, N-(5-cyano-1,2-dimethyl-1H-pyrrol-3-yl)-N-(4-hydroxyphenyl)-1,2-dimethyl-5-{7-[(3R)-3-methyl-1,2,3,4-tetrahydroisoquinoline-2-carbonyl]-2-(2-{4-[2-((2R)-2-methylmorpholin-4-yl)ethoxy]phenyl}acetyl)-1,2,3,4-tetrahydroisoquinolin-6-yl}-1H-pyrrole-3-carboxamide] | 10.22 | 9.70 | 2.8 | 9.72 | 9.55 | 9.77 | 8.80 | 26.7 | 0.0048 | 4.21 | 0.0201 | 43.5 | 26.9 | 48.5 | 30.5 |
